# Experimental data taken from patent US20250367302A1, “SMALL MOLECULE DRUG-OLIGONUCLEOTIDE CONJUGATE AND USE THEREOF” (SHANGHAI JIAO TONG UNIVERSITY, priority 2022, published 2025).
# What was measured:
# NFKBIZ mRNA [1] = test: NFKBIZ mRNA expression by RT-qPCR in IL-36-stimulated HaCaT cells; format: cell-based, human; conditions: IL-36-stimulated (100 ng/ml, 2 h) HaCaT cells, nanomicelles with 10 μM ASONFKBIZ-h, 6 h + 48 h
# Procedure: HaCaT cells from human keratinocyte cell line were inoculated in a 6-well plate at a density of 1×10^5 cells/well and cultured until adherence. The cells were then stimulated with 100 ng/ml interleukin-36 (IL-36) for 2 h. After washing with 1×PBS buffer, 1 mL of Opti-MEM medium containing ASONFKBIZ-h+Lipo2000 complex and CsA3-ASONFKBIZ-h nanomicelles (all containing 10 μM ASONFKBIZ-h) were added, respectively. After incubation with HaCaT cells for 6 h, the cells were transferred into fresh DMEM medium, while cells without any treatment or stimulated with IL-36 alone were used as a control, all cells were incubated at 37° C. for 48 h. The cells were collected and RNA was extracted for RT-qPCR to analyze the expression level of the NFKBIZ mRNA in HaCaT cells, and experimental results were shown in FIG. 51.
# HaCaT cells from human keratinocyte cell line were inoculated in a 6-well plate at a density of 1×10^5 cells/well and cultured until adherence. The cells were then stimulated with 100 ng/ml interleukin-36 (IL-36) for 2 h. After washing with 1×PBS buffer, 1 mL of Opti-MEM medium containing ASONFKBIZ-h+Lipo2000 complex and 10TA-ASONFKBIZ-h nanomicelles (all containing 10 μM ASONFKBIZ-h) were added, respectively. […]
# NFKBIZ mRNA [2] = test: NFKBIZ mRNA expression by RT-qPCR in LPS-stimulated HCECs; format: cell-based, human; conditions: LPS-stimulated (100 ng/mL) HCECs, 10 μM ASO or siRNA, without transfection reagent, 6 h + 48 h
# Procedure: HCECs were inoculated in a 6-well plate at a density of 1×10^5 cells/well and cultured until adherence. The cells were then stimulated with 100 ng/mL lipopolysaccharide (LPS) overnight. After removing the supernatant, 1 mL of Opti-MEM medium containing ASONFKBIZ-h, ASONFKBIZ-h+Lipofectamine2000 (Lipo2000), and CsA-ASONFKBIZ-h (all containing 10 µM ASO) were added, respectively. Cells without any treatment were used as a blank reference (Mock). After incubation at 37° C. for 6 h, the cells were transferred into DMEM medium and incubated for another 48 h. The cells were collected and RNA was extracted for RT-qPCR to analyze the expression level of the NFKBIZ mRNA in HCECs, and experimental results were shown in FIG. 9. The expression level of NFKBIZ mRNA in HCECs after LPS stimulation was about 1.3 times that of normal cells. […] After adding CsA-ASONFKBIZ-h for co-incubation, the expression of NFKBIZ mRNA was reduced to about 0.8 times that of normal cells.
# (§1) HCECs were inoculated in a 6-well plate at a density of 1×10^5 cells/well and cultured until adherence. The cells were then stimulated with 100 ng/mL LPS overnight. After removing the supernatant, 1 mL of Opti-MEM medium containing ASONFKBIZ-h+Lipo2000 complex and 2CsA-ASONFKBIZ-h nanomicelles (all containing 10 µM ASO) were added, respectively. After incubation at 37° C. for 6 h, the cells were transferred into DMEM medium and incubated for another 48 h. The cells were collected and RNA was extracted for RT-qPCR to analyze the expression level of the NFKBIZ mRNA in HCECs, and experimental results were shown in FIG. 12.
# as §1, with “ng/ml” for “ng/mL”, “3CsA-ASONFKBIZ-h” for “2CsA-ASONFKBIZ-h”, “15.” for “12.”
# HCECs were inoculated in a 6-well plate at a density of 1×10^5 cells/well and cultured until adherence. The cells were then stimulated with 100 ng/mL LPS overnight. 1 mL of Opti-MEM medium containing ASONFKBIZ-h+Lipo2000 complex and CsA3-ASONFKBIZ-h nanomicelles (all containing 10 µM ASO) were added, respectively. After incubation at […]. 37° C. for 6 h, the cells were transferred into DMEM medium and incubated for another 48 h. After collected and RNA was extracted for RT-qPCR to evaluate the expression level of NFKBIZ mRNA in HCECs, and the experimental results were shown in FIG. 23.
# HCECs were inoculated in a 6-well plate at a density of 1×10^5 cells/well and cultured overnight until adherence. The cells were then stimulated with 100 ng/ml LPS for 12 h. After removing the supernatant, 1 mL of Opti-MEM medium containing siRNANFKBIZ-h+Lipo2000 complex and nCsA-siRNANFKBIZ-h (n=1, 2, 3) conjugates and nanomicelles (all containing 10 μM siRNA) were added, respectively. After incubation at 37° C. for 6 h, the cells were transferred into DMEM medium and incubated for another 48 h. The cells were collected and RNA was extracted for RT-qPCR to evaluate the expression of NFKBIZ mRNA in HCECs, and experimental results were shown in FIG. 27. […]
substance,measurement,setting,value
"CsA3-ASONFKBIZ-h: CsA trimer on tripropargyl linker at 3′ end of ASO targeting human NFKBIZ (SEQ ID NO: 7) (ATCAGACAACGAATCGGGC; 3'-NHS ASO with tripropargyl linker carrying three cyclosporin A, chemistry not given here, further chemistry not given here)",NFKBIZ mRNA expression relative to normal cells,NFKBIZ mRNA [1],about 0.8 times
same,expression of NFKBIZ mRNA relative to normal cells,NFKBIZ mRNA [2],about 0.5 times that of normal cells
